# Results reported in patent US20070123556A1, “Treatment with Sigma Receptor Agonists Post-Stroke” (UNIVERSITY OF SOUTH FLORIDA, priority 2005, published 2007).
# Several values for one entry are separate records, joined by “and”; a condition that tells them apart may be missing. Equal entries are not always repeated. Where two headings read alike, the source gives them in different places.
# How the values were obtained:
# [1] = system: cultured cortical neurons; experiment: in vitro ischemia (sodium azide/glucose deprivation), fura-2 [Ca2+]i; assay type: cell-based, rat
# Method: The effects of sigma receptors on ischemia-induced changes in intracellular calcium concentrations were studied in cultured cortical neurons from embryonic (E18) rats. Dams were euthanatized by decapitation, uterus removed, and embryos dissected out and placed in isotonic buffer containing (in mM): 137 NaCl, 5 KCl, 0.2 NaH2PO4, 0.2 KH2PO4, 5.5 glucose, 6 sucrose (pH 7.4 with NaOH). Cortex were excised and minced, and tissue digested in isotonic buffer containing 0.25% trypsin/EDTA for 10 min at 37° C. and added to 3× volume of high glucose culture media (Dulbecco's Modified Eagle Media; Invitrogen, Inc., Carlsbad, Calif.), 10% (v/v) fetal calf serum, 100 U/ml penicillin and 0.1 mg/ml streptomycin. Cells were counted on a hemocytometer, plated (0.5×10^6 cells) on 18 mm coverslips coated with poly-l-lysine, and incubated at 37° C. under a 95% air, 5% CO2 atmosphere. After 24 hr the media was replaced with Neurobasal (Invitrogen) medium supplemented with B27 (Invitrogen) and 0.5 mM 1-glutamine to limit astrocyte proliferation in the cultures. Cells were used after 14-21 days in culture.
# Intracellular free-calcium was measured using the calcium sensitive dye, fura-2 as previously described (DeHaven and Cuevas, 2004). Cells plated on coverslips were incubated for 1 hour at room temperature in physiological saline solution (PSS) consisting of (in mM): 140 NaCl, 3 KCl, 2.5 CaCl2, 1.2 MgCl2, 7.7 glucose and 10 HEPES (pH to 7.2 with NaOH), which also contained 1 μM of the membrane permeable ester form of fura-2, acetoxymethylester (fura-2 AM) and 0.1% dimethyl sulfoxide (DMSO). The coverslips were then washed in PSS (fura-2 AM free) prior to the experiments being carried out. All solutions were applied via a rapid application system identical to that previously described (Cuevas and Berg, 1998).
# A DG-4 high-speed wavelength switcher (Sutter Instruments Co., Novato, Calif.) was used to apply alternating excitation light, and fluorescent emission was captured using a Sensicam digital CCD camera (Cooke Corporation, Auburn Hills, Mich.) and recorded with Slidebook 3.0 software (Intelligent Imaging Innovations, Denver, Colo.). Changes in [Ca^2+]i were calculated using the Slidebook 3 software (Intelligent Imaging Innovations) using methods described previously (DeHaven and Cuevas, 2004).
# In vitro ischemia was achieved using the sodium azide/glucose deprivation model.
# The control bath solution for all experiments was a physiological saline solution (PSS) containing (in mM) 140 NaCl, 1.2 MgCl2, 3 KCl, 2.5 CaCl2, 7.7 glucose and 10 HEPES, pH to 7.2 with NaOH. All drugs were applied in this solution unless otherwise noted. In vitro ischemia was induced by addition of the cytochrome oxidase inhibitor, NaN3 (4 mM), and removal of glucose from the PSS. For experiments in which multiple ischemic episodes were induced in a single cell, the order of drug application was alternatively reversed to compensate for any effects due to rundown, desensitization or ischemic preconditioning. For experiments with metaphit, cells were preincubated in 50 μM metaphit during the last 15 mm of fura-2 loading and immediately prior to experiments being conducted. The metaphit was washed off for 5 min in the bath using PSS.
# [2] = system: cultured cortical neurons; experiment: spontaneous Ca2+ transients, fura-2 [Ca2+]i; assay type: cell-based, rat; details: 100 μM
# cultured microglia = details: response to LPS; cited from earlier work
# rats = details: doses as high as 30 mg/kg; cited from earlier work
compound,measurement,setting,value
"Cc1ccccc1NC(=N)Nc1ccccc1C [DTG, 1,3-di-o-tolyguanidine]",ischemia-induced elevation in [Ca2+]i,[1]; 50 μM DTG after preincubation in 50 μM metaphit,237 ± 39 nM
same,decrease of ischemia-evoked elevation in [Ca2+]i,"[1]; 50 μM DTG, cells preincubated in 50 μM metaphit",52±8%
same,decrease of ischemia-evoked rise in [Ca2+]i,"[1]; 50 μM DTG, control cells",~70% and 83±3%
same,ischemia-induced elevation in [Ca2+]i,"[1]; 50 μM DTG, no metaphit (control 291±47 nM)",47 ± 9 nM
same,effect on spontaneous increases in [Ca2+]i (number of events),[2],reversibly block
same,survival rate 96 hours post MCAO,"rats subjected to MCAO; 15 mg/kg daily s.c. at 24, 48, 72 h post MCAO",over 70%
same,survival rate 96 hours post MCAO,"rats subjected to MCAO; 30 mg/kg daily s.c. at 24, 48, 72 h post MCAO",under 40%
same,deaths in sham animals following DTG application,"rats subjected to MCAO; sham control, 15 mg/kg DTG",none
same,production of TNF-α,cultured microglia,inhibits
same,production of nitric oxide,cultured microglia,inhibits
same,tolerability,rats,well tolerated
